Assay results taken from patent publication US5723606A, “Condensed benzazepine derivative and pharmaceutical composition thereof” (priority 1993, dated 1998).
Structures can show the parent of a compound that is named as a salt. Where two headings read alike, the source gives them in different places.

Columns and labels:
[1] = target: T1, arginine vasopressin V1 receptor (Rattus norvegicus, UniProt P30560); assay: V1 receptor binding assay; settings: for antagonism on V1 receptor (in words): compared with OPC-31260 and OPC-21268, cf. Table 1
T1 construct: A rat liver membrane sample was prepared; from tissue; host or cells: rat liver membranes
Method: Usefulness of the compounds of the present invention was confirmed by the following tests. (1) V1 receptor binding assay
A rat liver membrane sample was prepared in accordance with the method of Nakamura et al. (J. Biol. Chem., 258, 9283 (1983)), and [^3 H]-Arg-vasopressin (2 nM, specific activity =75.8 Ci/mmol), 70 μg of the membrane sample and each drug to be tested (10^-8 to 10^-4 M) were incubated at 30° C. for 30 minutes in 250 μl of 100 mM Tris-HCl buffer (pH 8.0) containing 5 mM magnesium chloride, 1mM ethylenediaminetetraacetic acid (EDTA) and 0.1% bovine serum albumin (BSA). Thereafter, the incubation solution was sucked off using a cell harvester and free ligand and excess buffer were removed by passing the reaction mixture through a glass filter (GF/B), thereby trapping receptor-bound labeled ligand on the glass filter. The glass filter was taken out, thoroughly dried and then mixed with a liquid scintillation cocktail, and the amount of the membrane-bound [^3 H]-vasopressin was measured using a liquid scintillation counter to calculate the inhibition ratio by the following formula. [formula] C1 : amount of [^3 H]-vasopressin bound to the membrane in the coexistence of known amount of each drug to be tested and [^3 H]-vasopressin
C0 : amount of [^3 H]-vasopressin bound to the membrane when the drug to be tested was not added
B1 : amount of [^3 H]-vasopressin bound to the membrane in the presence of excess vasopressin (10^-6 M)
[formula] [L]: concentration of radioactive ligand KD: dissociation constant calculated from Scatchard plot
Negative logarithm of the thus calculated value was used as pKi value.

V2 receptor = assay: V2 antagonism (water diuresis) in conscious rats (oral administration); assay type: in vivo, rat
Method: (4) V2 antagonism (water diuresis) in conscious rats (oral administration)
Each compound to be tested was suspended in 0.5% methylcellulose aqueous solution and orally administered in a dose of 3 mg/kg to male Wister rats (body weight, 270 to 300 g) which had been subjected to fasting with no water for 16 to 20 hours. Using a metabolic cage, urine samples were collected just after the administration of each test sample and until 4 hours after the administration to measure the amount of urine.

[2] = target: arginine vasopressin V2 receptor (Oryctolagus cuniculus, UniProt G1TA00); assay: V2 receptor binding assay; set-up: species or system rabbit; settings: for antagonism on V2 receptor (in words): compared with OPC-31260 and OPC-21268, cf. Table 1
V1 receptor = assay: V1 antagonism in conscious rats (oral administration); assay type: in vivo, rat; settings: 1 mg/kg oral, from 30 minutes to 6 hours after administration, AVP 30 mU/kg i.v.
[3] = rat liver membrane, [3H]-Arg-vasopressin 2 nM, read-out: Binding activity on arginine vasopressin V1 receptor (pki) (converted)

arginine vasopressin V2 receptor, sequence (G1TA00 78-446): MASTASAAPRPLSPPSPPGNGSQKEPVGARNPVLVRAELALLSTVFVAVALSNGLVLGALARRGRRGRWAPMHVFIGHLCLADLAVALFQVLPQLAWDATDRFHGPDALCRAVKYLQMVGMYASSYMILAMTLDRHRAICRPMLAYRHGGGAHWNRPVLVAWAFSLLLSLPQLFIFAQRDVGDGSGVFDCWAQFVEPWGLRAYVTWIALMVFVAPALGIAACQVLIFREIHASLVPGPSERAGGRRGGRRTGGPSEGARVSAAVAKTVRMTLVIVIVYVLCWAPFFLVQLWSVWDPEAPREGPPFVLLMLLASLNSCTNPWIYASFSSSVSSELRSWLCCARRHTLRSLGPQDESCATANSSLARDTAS
T1 sequence (P30560 whole entry): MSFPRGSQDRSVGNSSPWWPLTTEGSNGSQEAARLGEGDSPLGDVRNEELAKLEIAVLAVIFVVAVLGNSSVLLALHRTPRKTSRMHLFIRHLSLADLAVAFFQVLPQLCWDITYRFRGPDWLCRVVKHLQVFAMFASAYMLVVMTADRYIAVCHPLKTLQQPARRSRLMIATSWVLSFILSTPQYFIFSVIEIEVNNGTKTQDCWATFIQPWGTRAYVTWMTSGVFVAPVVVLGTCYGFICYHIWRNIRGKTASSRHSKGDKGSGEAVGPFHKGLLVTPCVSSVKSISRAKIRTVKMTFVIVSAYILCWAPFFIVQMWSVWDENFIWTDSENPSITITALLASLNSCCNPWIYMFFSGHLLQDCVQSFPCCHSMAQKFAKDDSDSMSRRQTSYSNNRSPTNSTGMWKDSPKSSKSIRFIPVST

Row | Compound | Ki [1, 3] [nM] | antagonism on V1 receptor (in words) [1] | antagonism on V2 receptor (in words) [2] | also measured
1 | Cc1ccccc1C(=O)Nc1ccc(C(=O)N2CCCC(N(C)C)c3ccccc32)cc1 (centres unmarked) [(1), reference compound] | – | – | – | Binding activity on arginine vasopressin V1 receptor (pki) ([1]; rat liver membrane, [3H]-Arg-vasopressin 2 nM): 6.71; amount of urine relative to the solvent-administered group (V2 receptor; 3 mg/kg oral, from 2 hours to 4 hours after administration, fasted conscious rats): almost the same as that in the solvent-administered group; amount of urine relative to the solvent-administered group (V2 receptor; po, 3 mg/kg, 2 h): 11 times; Binding activity on arginine vasopressin V2 receptor (pki) ([2]; rabbit renal medulla membrane, [3H]-Arg-vasopressin 2 nM): 8.01
2 | Nc1nc2c(s1)CCN(C(=O)c1ccc(NC(=O)c3ccccc3-c3ccccc3)cc1)c1ccccc1-2 [Example 1, 4'-[(2-amino-5,6-dihydro-4H-thiazolo[5,4-d][1]benzazepin-6-yl)carbonyl]-2-phenylbenzanilide hydrobromate] | 4.68 | – | – | –
3 | N=C(N)Nc1nc2c(s1)CCN(C(=O)c1ccc(NC(=O)c3ccccc3-c3ccccc3)cc1)c1ccccc1-2 [Example 2, 4'-[(2-guanidino-5,6-dihydro-4H-thiazolo[5,4-d][1]benzazepin-6-yl)carbonyl]-2-phenylbenzanilide hydrobromate] | 1.51 | – | – | –
4 | Cc1ccc(-c2ccccc2C(=O)Nc2ccc(C(=O)N3CCc4sc(NC(=N)N)nc4-c4ccccc43)cc2)cc1 [Example 4, 4'-[(2-guanidino-5,6-dihydro-4H-thiazolo[5,4-d][1]benzazepin-6-yl)carbonyl]-2-(4-methylphenyl)benzanilide hydrobromate] | 4.37 | – | – | –
5 | Cc1nc(Cc2nc3c(s2)CCN(C(=O)c2ccc(NC(=O)c4ccccc4-c4ccccc4)cc2)c2ccccc2-3)c[nH]1 [Example 6, 4'-[[2-[4-(2-methylimidazolyl)methyl]-5,6-dihydro-4H-thiazolo[5,4-d][1]benzazepin-6-yl)carbonyl]-2-phenylbenzanilide.2HCl] | 11.2 | – | – | –
6 | O=C(Nc1ccc(C(=O)N2CCc3sc(Cc4cccnc4)nc3-c3ccccc32)cc1)c1ccccc1-c1ccccc1 [Example 8, 4'-[[2-(3-pyridylmethyl)-5,6-dihydro-4H-thiazolo[5,4-d][1]benzazepin-6-yl)carbonyl]-2-phenylbenzanilide hydrochloride] | 18.2 | – | – | –
7 | CN(C)CCNc1nc2c(s1)CCN(C(=O)c1ccc(NC(=O)c3ccccc3-c3ccccc3)cc1)c1ccccc1-2 [Example 10, 4'-[(2-dimethylaminoethylamino-5,6-dihydro-4H-thiazolo[5,4-d][1]benzazepin-6-yl)carbonyl]-2-phenylbenzanilide.2 HCl] | 2.45 | – | – | –
8 | CN(C)CCCc1nc2c(s1)CCN(C(=O)c1ccc(NC(=O)c3ccccc3-c3ccccc3)cc1)c1ccccc1-2 [Example 12, 4'-[[2-(3-dimethylaminopropyl)-5,6-dihydro-4H-thiazolo[5,4-d][1]benzazepin-6-yl)carbonyl]-2-phenylbenzanilide hydrochloride] | 3.02 | – | – | –
9 | NCCc1nc2c(s1)CCN(C(=O)c1ccc(NC(=O)c3ccccc3-c3ccccc3)cc1)c1ccccc1-2 [Example 15, 4'-[(2-aminoethyl-5,6-dihydro-4H-thiazolo[5,4-d][1]benzazepin-6-yl)carbonyl]-2-phenylbenzanilide hydrochloride] | – | – | – | Ki [1]: 1.23 nM
10 | CC(C)O.Cl.NCC(=O)Nc1nc2c(s1)CCN(C(=O)c1ccc(NC(=O)c3ccccc3-c3ccccc3)cc1)c1ccccc1-2 [Example 17, 4'-[(2-glycylamino-5,6-dihydro-4H-thiazolo[5,4-d][1]benzazepin-6-yl)carbonyl]-2-phenylbenzanilide 2-propylalcohol hydrochloride] | 0.912 | excellent antagonisms | excellent antagonisms | –
11 | Cc1nc2c(o1)-c1ccccc1N(C(=O)c1ccc(NC(=O)c3ccccc3-c3ccccc3)cc1)CC2 [Example 18(1), 4'-[(2-Methyl-5,6-dihydro-4H-oxazolo[4,5-d][1]benzazepin-6-yl)carbonyl]-2-phenylbenzanilide] | 4.27 | – | – | –
12 | Cc1nc2c([nH]1)-c1ccccc1N(C(=O)c1ccc(NC(=O)c3ccccc3-c3ccccc3)cc1)CC2.Cl [Example 18(2), 4'-[(2-methyl-1,4,5,6-tetrahydroimidazo[4,5-d][1]benzazepin-6-yl)carbonyl]-2-phenylbenzanilide hydrochloride] | – | excellent antagonisms | excellent antagonisms | Ki [1]: 0.891 nM; amount of urine relative to the solvent-administered group (V2 receptor; po, 3 mg/kg): 8-10 times; amount of urine relative to the solvent-administered group (V2 receptor; po, 3 mg/kg, 2 h): 47-95 times; Pressure increase by AVP (diastolic blood pressure, pre-dose increase = 100%) (V1 receptor): ≤ 50%
13 | CCc1nc2c([nH]1)-c1ccccc1N(C(=O)c1ccc(NC(=O)c3ccccc3-c3ccccc3)cc1)CC2.Cl [Example 20, 4'-[(2-ethyl-1,4,5,6-tetrahydroimidazo[4,5-d][1]benzazepin-6-yl)carbonyl]-2-phenylbenzanilide hydrochloride] | 0.661 | excellent antagonisms | excellent antagonisms | amount of urine relative to the solvent-administered group (V2 receptor; po, 3 mg/kg): 8-10 times; amount of urine relative to the solvent-administered group (V2 receptor; po, 3 mg/kg, 2 h): 47-95 times
14 | CCCc1nc2c([nH]1)-c1ccccc1N(C(=O)c1ccc(NC(=O)c3ccccc3-c3ccccc3)cc1)CC2.Cl [Example 21, 4'-[(2-propyl-1,4,5,6-tetrahydroimidazo[4,5-d][1]benzazepin-6-yl)carbonyl]-2-phenylbenzanilide hydrochloride] | 1.82 | excellent antagonisms | excellent antagonisms | amount of urine relative to the solvent-administered group (V2 receptor; po, 3 mg/kg): 8-10 times; amount of urine relative to the solvent-administered group (V2 receptor; po, 3 mg/kg, 2 h): 47-95 times; Pressure increase by AVP (diastolic blood pressure, pre-dose increase = 100%) (V1 receptor): ≤ 50%
15 | Cl.O=C(Nc1ccc(C(=O)N2CCc3nc(C4CC4)[nH]c3-c3ccccc32)cc1)c1ccccc1-c1ccccc1 [Example 23, 4'-[(2-cyclopropyl-1,4,5,6-tetrahydroimidazo[4,5-d][1]benzazepin-6-yl)carbonyl]-2-phenylbenzanilide hydrochloride] | – | excellent antagonisms | excellent antagonisms | amount of urine relative to the solvent-administered group (V2 receptor; po, 3 mg/kg): 8-10 times; amount of urine relative to the solvent-administered group (V2 receptor; po, 3 mg/kg, 2 h): 47-95 times; Pressure increase by AVP (diastolic blood pressure, pre-dose increase = 100%) (V1 receptor): ≤ 50%
16 | Cc1nc2c([nH]1)-c1ccccc1N(C(=O)c1ccc(NC(=O)c3ccccc3C)cc1)CC2 [Example 24, 2-methyl-4'-[(2-methyl-1,4,5,6-tetrahydroimidazo[4,5-d][1]benzazepin-6-yl)carbonyl]benzanilide hydrochloride] | 17 | – | – | –
17 | Cc1nc2c([nH]1)-c1ccccc1N(C(=O)c1ccc(NC(=O)c3ccccc3OC(C)C)cc1)CC2 [Example 27, 2-isopropoxy-4'-[(2-methyl-1,4,5,6-tetrahydroimidazo[4,5-d][1]benzazepin-6-yl)carbonyl]benzanilide hydrochloride] | 6.17 | – | – | –
18 | NCCCCc1nc2c([nH]1)-c1ccccc1N(C(=O)c1ccc(NC(=O)c3ccccc3-c3ccccc3)cc1)CC2 [Example 37, 4'-[[2-(4-aminobutyl)-1,4,5,6-tetrahydroimidazo[4,5-d][1]benzazepin-6-yl]carbonyl]-2-phenylbenzanilide.2 HCl] | 0.324 | excellent antagonisms | excellent antagonisms | –
19 | Cc1nc2c([nH]1)-c1ccccc1N(C(=O)c1ccc(NC(=O)C3(c4ccccc4)CCCC3)cc1)CC2 [Example 38, N-[4-[(2-methyl-1,4,5,6-tetrahydroimidazo[4,5-d][1]benzazepin-6-yl)carbonyl]phenylcyclopentanecarboxamido hydrochloride] | 5.75 | – | – | –
